From the NIST ThermoML archive (doi:10.1016/j.tca.2018.11.018)

Test: xn = mol fraction of the nth substance listed
Details: 100 kPa, Liquid; for viscosity: Falling or rolling sphere viscometry; for mass density: Vibrating tube method

CCCC[N+]1(C)CCCCC1.[Br-] [N-butyl-N-methylpiperidinium bromide] + O
Details	mass density [kg/m3]	viscosity [mPa·s]
298.15 K, x1 = 0.03	1057.7	1.991
298.15 K, x1 = 0.06	1097.6	3.692
298.15 K, x1 = 0.089	1126.3	6.598
298.15 K, x1 = 0.124	1150.5	12.67
298.15 K, x1 = 0.159	1167.6	21.36
298.15 K, x1 = 0.195	1180.6	35.21
298.15 K, x1 = 0.244	1193.3	69.27
303.15 K, x1 = 0.03	1054.4	1.735
303.15 K, x1 = 0.06	1094.6	3.121
303.15 K, x1 = 0.089	1122.9	5.435
303.15 K, x1 = 0.124	1146.9	10.39
303.15 K, x1 = 0.159	1164	16.98
303.15 K, x1 = 0.195	1176.9	27.19
303.15 K, x1 = 0.244	1189.7	51.06
303.15 K, x1 = 0.271	1195.4	72.65
308.15 K, x1 = 0.03	1051.9	1.529
308.15 K, x1 = 0.06	1091.5	2.676
308.15 K, x1 = 0.089	1119.4	4.553
308.15 K, x1 = 0.124	1143.2	8.531
308.15 K, x1 = 0.159	1160.3	13.62
308.15 K, x1 = 0.195	1173.3	21.32
308.15 K, x1 = 0.244	1186.2	38.65
308.15 K, x1 = 0.271	1191.8	53.78
313.15 K, x1 = 0.03	1049.3	1.359
313.15 K, x1 = 0.06	1088.3	2.321
313.15 K, x1 = 0.089	1116	3.88
313.15 K, x1 = 0.124	1139.6	7.053
313.15 K, x1 = 0.159	1156.7	11.02
313.15 K, x1 = 0.195	1169.7	16.99
313.15 K, x1 = 0.244	1182.6	29.62
313.15 K, x1 = 0.271	1188.3	40.63
318.15 K, x1 = 0.03	1045.6	1.215
318.15 K, x1 = 0.06	1085.1	2.033
318.15 K, x1 = 0.089	1112.4	3.326
318.15 K, x1 = 0.124	1135.9	5.797
318.15 K, x1 = 0.159	1153	9.05
318.15 K, x1 = 0.195	1166	13.74
318.15 K, x1 = 0.244	1179	23.16
318.15 K, x1 = 0.271	1184.7	31.55
323.15 K, x1 = 0.03	1042.7	1.097
323.15 K, x1 = 0.06	1081.8	1.798
323.15 K, x1 = 0.089	1108.8	2.89
323.15 K, x1 = 0.124	1132.2	4.929
323.15 K, x1 = 0.159	1149.3	7.56
323.15 K, x1 = 0.195	1162.4	11.33
323.15 K, x1 = 0.244	1175.4	18.71
323.15 K, x1 = 0.271	1181.2	24.85
328.15 K, x1 = 0.03	1040	0.997
328.15 K, x1 = 0.06	1078.4	1.603
328.15 K, x1 = 0.089	1105.2	2.54
328.15 K, x1 = 0.124	1128.5	4.221
328.15 K, x1 = 0.159	1145.5	6.369
328.15 K, x1 = 0.195	1158.7	9.485
328.15 K, x1 = 0.244	1171.8	15.31
328.15 K, x1 = 0.271	1177.6	20.06
333.15 K, x1 = 0.03	1035.9	0.906
333.15 K, x1 = 0.06	1075	1.441
333.15 K, x1 = 0.089	1101.6	2.248
333.15 K, x1 = 0.124	1124.8	3.656
333.15 K, x1 = 0.159	1141.8	5.446
333.15 K, x1 = 0.195	1155	8.051
333.15 K, x1 = 0.244	1168.2	12.77
333.15 K, x1 = 0.271	1174	16.49
338.15 K, x1 = 0.03	1031.9	0.828
338.15 K, x1 = 0.06	1071.4	1.302
338.15 K, x1 = 0.089	1097.9	2.006
338.15 K, x1 = 0.124	1121	3.199
338.15 K, x1 = 0.159	1138	4.666
338.15 K, x1 = 0.195	1151.3	6.86
338.15 K, x1 = 0.244	1164.5	10.74
338.15 K, x1 = 0.271	1170.4	13.75
343.15 K, x1 = 0.03	1027.2	0.761
343.15 K, x1 = 0.06	1067.6	1.185
343.15 K, x1 = 0.089	1094.1	1.806
343.15 K, x1 = 0.124	1117.2	2.715
343.15 K, x1 = 0.159	1134.3	4.069
343.15 K, x1 = 0.195	1147.6	5.932
343.15 K, x1 = 0.244	1160.9	9.231
343.15 K, x1 = 0.271	1166.8	11.68
348.15 K, x1 = 0.03	1023.3	0.7
348.15 K, x1 = 0.06	1064.1	1.083
348.15 K, x1 = 0.089	1090.4	1.629
348.15 K, x1 = 0.124	1113.4	2.428
348.15 K, x1 = 0.159	1130.5	3.568
348.15 K, x1 = 0.195	1143.8	5.143
348.15 K, x1 = 0.244	1157.2	7.953
348.15 K, x1 = 0.271	1163.2	9.976
